Starred links: 1 amine or outer side, 2 acyl side, 3 side chain; linkers in the order of their positions; H or OH if unused. Non-standard residues stand in square brackets, D forms with d. Residues, ends and D or L forms follow the SMILES beside them. X1 = O=C(CN(C[C@H](O)[C@@H](O)[C@H](O)[C@H](O)CO)[*:1])[*:2]; dPhe(2-Ph) = N[C@H](Cc1ccccc1-c1ccccc1)C(=O)O; dPhe(2-Cl) = N[C@H](Cc1ccccc1Cl)C(=O)O; dPhe(2-Me) = Cc1ccccc1C[C@@H](N)C(=O)O; d1Nal = N[C@H](Cc1cccc2ccccc12)C(=O)O; dBta = N[C@H](Cc1csc2ccccc12)C(=O)O; Gly(cPent) = N[C@H](C(=O)O)C1CCCC1; Chg = N[C@H](C(=O)O)C1CCCCC1
Tests used:
hAT1R [1] = molecular target: T1, hAT1R (Homo sapiens, UniProt P30556); experiment: FLIPR calcium flux assay, Part II: antagonist activity against Angiotensin II; assay type: cell-based; details: for Emax: read-out: hAT1R Antagonist Efficacy Antag (%) Ave; for IC50: read-out: hAT1R Antagonist IC50 Ave; for hAT1R Antagonist Efficacy Antag (%) Ave: Angiotensin II 10 nM final concentration
T1 sequence (P30556 1-359): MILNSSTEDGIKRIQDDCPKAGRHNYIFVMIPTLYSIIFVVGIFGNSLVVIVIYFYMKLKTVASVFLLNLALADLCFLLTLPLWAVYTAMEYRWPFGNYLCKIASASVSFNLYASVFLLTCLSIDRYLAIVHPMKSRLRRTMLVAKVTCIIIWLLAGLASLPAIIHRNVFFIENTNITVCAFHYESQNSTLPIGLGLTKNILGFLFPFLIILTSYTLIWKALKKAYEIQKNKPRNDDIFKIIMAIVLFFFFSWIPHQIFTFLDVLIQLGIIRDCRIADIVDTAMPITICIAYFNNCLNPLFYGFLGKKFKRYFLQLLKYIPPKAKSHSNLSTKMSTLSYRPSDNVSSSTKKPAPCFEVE

hAT1R [2] = molecular target: T1, hAT1R; experiment: FLIPR calcium flux assay, Part I: agonist activity; assay type: cell-based; details: ChanTest hAT1R stable cells; % MPE, percent of the maximal possible effect; read-out: hAT1R Agonist Efficacy Agonist (%) Ave

Emax (hAT1R [1]) [%]	IC50 (hAT1R [1]) [nM]	Emax (hAT1R [2]) [%]	Structure (SMILES)
101	18.8	5	CC(C)[C@H](NC(=O)[C@H](CCCNC(=N)N)NC(=O)CNC[C@H](O)[C@@H](O)[C@H](O)[C@H](O)CO)C(=O)N[C@@H](Cc1ccc(O)cc1)C(=O)N[C@H](C(=O)N[C@@H](Cc1c[nH]cn1)C(=O)N1CCC[C@H]1C(=O)N[C@H](Cc1csc2ccccc12)C(=O)O)C(C)C [Compound 38, Glac-Arg-Val-Tyr-Val-His-Pro-(D-(3-benzothienyl)alanine)-OH] (HELM PEPTIDE1{[O=C(CNC[C@H](O)[C@@H](O)[C@H](O)[C@H](O)CO)[*:2]].R.V.Y.V.H.P.[O=C(O)[C@@H](Cc1csc2ccccc12)N[*:1]]}$$$$V2.0)
101	26.7	8	CC(C)[C@H](NC(=O)[C@H](CCCNC(=N)N)NC(=O)CNC[C@H](O)[C@@H](O)[C@H](O)[C@H](O)CO)C(=O)N[C@@H](Cc1ccc(O)cc1)C(=O)N[C@H](C(=O)N[C@@H](Cc1c[nH]cn1)C(=O)N1CCC[C@H]1C(=O)N[C@H](Cc1ccccc1-c1ccccc1)C(=O)O)C(C)C [Compound 39, Glac-Arg-Val-Tyr-Val-His-Pro-(D-Phe(2-Ph))—OH] (HELM PEPTIDE1{[O=C(CNC[C@H](O)[C@@H](O)[C@H](O)[C@H](O)CO)[*:2]].R.V.Y.V.H.P.[O=C(O)[C@@H](Cc1ccccc1-c1ccccc1)N[*:1]]}$$$$V2.0)
101	21.9	5	CC(C)[C@H](NC(=O)[C@H](CCCNC(=N)N)NC(=O)CNC[C@H](O)[C@@H](O)[C@H](O)[C@H](O)CO)C(=O)N[C@@H](Cc1ccc(O)cc1)C(=O)N[C@H](C(=O)N[C@@H](Cc1c[nH]cn1)C(=O)N1CCC[C@H]1C(=O)N[C@H](Cc1cccc2ccccc12)C(=O)O)C1CCCCC1 [Compound 40, Glac-Arg-Val-Tyr-Chg-His-Pro-(D-1Nal)-OH] (H-[X1]RVY[Chg]HP[d1Nal]-OH)
101	19.1	5	CC(C)[C@H](NC(=O)[C@H](CCCNC(=N)N)NC(=O)CNC[C@H](O)[C@@H](O)[C@H](O)[C@H](O)CO)C(=O)N[C@@H](Cc1ccc(O)cc1)C(=O)N[C@H](C(=O)N[C@@H](Cc1c[nH]cn1)C(=O)N1CCC[C@H]1C(=O)N[C@H](Cc1csc2ccccc12)C(=O)O)C1CCCCC1 [Compound 41, Glac-Arg-Val-Tyr-Chg-His-Pro-(D-(3-benzothienyl)alanine)-OH] (H-[X1]RVY[Chg]HP[dBta]-OH)
101	28.5	10	CC(C)[C@H](NC(=O)[C@H](CCCNC(=N)N)NC(=O)CNC[C@H](O)[C@@H](O)[C@H](O)[C@H](O)CO)C(=O)N[C@@H](Cc1ccc(O)cc1)C(=O)N[C@H](C(=O)N[C@@H](Cc1c[nH]cn1)C(=O)N1CCC[C@H]1C(=O)N[C@H](Cc1ccccc1-c1ccccc1)C(=O)O)C1CCCCC1 [Compound 42, Glac-Arg-Val-Tyr-Chg-His-Pro-(D-Phe(2-Ph))—OH] (H-[X1]RVY[Chg]HP[dPhe(2-Ph)]-OH)
100	16.6	6	CC(C)[C@H](NC(=O)[C@H](CCCNC(=N)N)NC(=O)CNC[C@H](O)[C@@H](O)[C@H](O)[C@H](O)CO)C(=O)N[C@@H](Cc1ccc(O)cc1)C(=O)N[C@H](C(=O)N[C@@H](Cc1c[nH]cn1)C(=O)N1CCC[C@H]1C(=O)N[C@H](Cc1ccccc1Cl)C(=O)O)C1CCCC1 [Compound 43, Glac-Arg-Val-Tyr-Cpg-His-Pro-(D-Phe(2-Cl))—OH] (H-[X1]RVY[Gly(cPent)]HP[dPhe(2-Cl)]-OH)
101	20.4	7	Cc1ccccc1C[C@@H](NC(=O)[C@@H]1CCCN1C(=O)[C@H](Cc1c[nH]cn1)NC(=O)[C@@H](NC(=O)[C@H](Cc1ccc(O)cc1)NC(=O)[C@@H](NC(=O)[C@H](CCCNC(=N)N)NC(=O)CNC[C@H](O)[C@@H](O)[C@H](O)[C@H](O)CO)C(C)C)C1CCCC1)C(=O)O [Compound 44, Glac-Arg-Val-Tyr-Cpg-His-Pro-(D-Phe(2-Me))—OH] (H-[X1]RVY[Gly(cPent)]HP[dPhe(2-Me)]-OH)
